Test results: ChEMBL document CHEMBL5036347, “Design of the naphthyl-diarylpyrimidines as potent non-nucleoside reverse transcriptase inhibitors (NNRTIs) via structure-based extension into the entrance channel” (Eur J Med Chem, 2021)
In brackets after ≈: the same amount, converted by molar mass.

tested on: Human immunodeficiency virus 1; assay: Anti-HIV activity against HIV-1 IIIB infected in human MT4 cells assessed as reduction in virus-induced cytopathic effect incubated for 5 days by MTT assay; assay type: functional, organism-based; conditions: Human immunodeficiency virus 1, IIIB, MT4, 120 h

| Structure (SMILES) | EC50 |
| --- | --- |
| COc1cc2cc(C#N)ccc2c(OC)c1Oc1cc(N2CCC(O)C2)nc(Nc2ccc(C#N)cc2)n1 (centres undefined) | 11 nM |

tested on: Human immunodeficiency virus 2; assay: Anti-HIV activity against HIV2 ROD infected in human MT4 cells assessed as reduction in virus-induced cytopathic effect incubated for 5 days by MTT assay; assay type: functional, organism-based; conditions: Human immunodeficiency virus 2, ROD, MT4, 120 h

| Structure (SMILES) | EC50 |
| --- | --- |
| COc1cc2cc(C#N)ccc2c(OC)c1Oc1cc(N2CCC(O)C2)nc(Nc2ccc(C#N)cc2)n1 (centres undefined) | 9120 nM |

tested on: not listed separately; assay: Cytotoxicity against human MT4 cells assessed as reduction in cell viability incubated for 5 days by MTT assay; assay type: cell-based; conditions: human, MT4 cells; time 5 day

| Structure (SMILES) | CC50 at 120 h |
| --- | --- |
| COc1cc2cc(C#N)ccc2c(OC)c1Oc1cc(N2CCC(O)C2)nc(Nc2ccc(C#N)cc2)n1 (centres undefined) | > 125000 nM |

tested on: Human immunodeficiency virus 1; assay: Antiviral activity against HIV1 harboring reverse transcriptase L100I mutant infected in human MT4 cells assessed as protection against virus-induced cytopathic effect incubated for 5 days by MTT assay; assay type: functional, organism-based; conditions: Human immunodeficiency virus 1, MT4, 120 h

| Structure (SMILES) | EC50 |
| --- | --- |
| COc1cc2cc(C#N)ccc2c(OC)c1Oc1cc(N2CCC(O)C2)nc(Nc2ccc(C#N)cc2)n1 (centres undefined) | 120 nM |

tested on: Human immunodeficiency virus 1; assay: Antiviral activity against HIV1 harboring reverse transcriptase K103N mutant infected in human MT4 cells assessed as protection against virus-induced cytopathic effect incubated for 5 days by MTT assay; assay type: functional, organism-based; conditions: Human immunodeficiency virus 1, MT4, 120 h

| Structure (SMILES) | EC50 |
| --- | --- |
| COc1cc2cc(C#N)ccc2c(OC)c1Oc1cc(N2CCC(O)C2)nc(Nc2ccc(C#N)cc2)n1 (centres undefined) | 19 nM |

tested on: Human immunodeficiency virus 1; assay: Antiviral activity against HIV1 harboring reverse transcriptase Y181C mutant infected in human MT4 cells assessed as protection against virus-induced cytopathic effect incubated for 5 days by MTT assay; assay type: functional, organism-based; conditions: Human immunodeficiency virus 1, MT4, 120 h

| Structure (SMILES) | EC50 |
| --- | --- |
| COc1cc2cc(C#N)ccc2c(OC)c1Oc1cc(N2CCC(O)C2)nc(Nc2ccc(C#N)cc2)n1 (centres undefined) | 48 nM |

tested on: Human immunodeficiency virus 1; assay: Antiviral activity against HIV1 harboring reverse transcriptase Y188L mutant infected in human MT4 cells assessed as protection against virus-induced cytopathic effect incubated for 5 days by MTT assay; assay type: functional, organism-based; conditions: Human immunodeficiency virus 1, MT4, 120 h

| Structure (SMILES) | EC50 |
| --- | --- |
| COc1cc2cc(C#N)ccc2c(OC)c1Oc1cc(N2CCC(O)C2)nc(Nc2ccc(C#N)cc2)n1 (centres undefined) | 400 nM |

tested on: Human immunodeficiency virus 1; assay: Antiviral activity against HIV1 harboring reverse transcriptase E138K mutant infected in human MT4 cells assessed as protection against virus-induced cytopathic effect incubated for 5 days by MTT assay; assay type: functional, organism-based; conditions: Human immunodeficiency virus 1, MT4, 120 h

| Structure (SMILES) | EC50 |
| --- | --- |
| COc1cc2cc(C#N)ccc2c(OC)c1Oc1cc(N2CCC(O)C2)nc(Nc2ccc(C#N)cc2)n1 (centres undefined) | 45 nM |

tested on: Human immunodeficiency virus 1; assay: Antiviral activity against HIV1 harboring reverse transcriptase F227L/V106A mutant infected in human MT4 cells assessed as protection against virus-induced cytopathic effect incubated for 5 days by MTT assay; assay type: functional, organism-based; conditions: Human immunodeficiency virus 1, MT4, 120 h

| Structure (SMILES) | EC50 |
| --- | --- |
| COc1cc2cc(C#N)ccc2c(OC)c1Oc1cc(N2CCC(O)C2)nc(Nc2ccc(C#N)cc2)n1 (centres undefined) | 1330 nM |

tested on: not listed separately; assay: Resistance fold, ratio of EC50 for HIV1 harboring reverse transcriptase Y181C mutant […] to EC50 for wild type HIV1 […]; assay type: functional; conditions: not given

| Structure (SMILES) | Ratio EC50 |
| --- | --- |
| COc1cc2cc(C#N)ccc2c(OC)c1Oc1cc(N2CCC(O)C2)nc(Nc2ccc(C#N)cc2)n1 (centres undefined) | 4 |

tested on: not listed separately; assay: Resistance fold, ratio of EC50 for HIV1 harboring reverse transcriptase L100I mutant […] to EC50 for wild type HIV1 […]; assay type: functional; conditions: not given

| Structure (SMILES) | Ratio EC50 |
| --- | --- |
| COc1cc2cc(C#N)ccc2c(OC)c1Oc1cc(N2CCC(O)C2)nc(Nc2ccc(C#N)cc2)n1 (centres undefined) | 11 |

tested on: not listed separately; assay: Resistance fold, ratio of EC50 for HIV1 harboring reverse transcriptase K103N mutant […] to EC50 for wild type HIV1 […]; assay type: functional; conditions: not given

| Structure (SMILES) | Ratio EC50 |
| --- | --- |
| COc1cc2cc(C#N)ccc2c(OC)c1Oc1cc(N2CCC(O)C2)nc(Nc2ccc(C#N)cc2)n1 (centres undefined) | 2 |

tested on: Human immunodeficiency virus 1; assay: Antiviral activity against HIV1 harboring reverse transcriptase K103N/Y181C double mutant infected in human MT4 cells assessed as protection against virus-induced cytopathic effect incubated for 5 days by MTT assay; assay type: functional, organism-based; conditions: Human immunodeficiency virus 1, MT4, 120 h

| Structure (SMILES) | EC50 |
| --- | --- |
| COc1cc2cc(C#N)ccc2c(OC)c1Oc1cc(N2CCC(O)C2)nc(Nc2ccc(C#N)cc2)n1 (centres undefined) | 810 nM |

tested on: not listed separately; assay: Selectivity index, ratio of CC50 for cytotoxicity against human MT4 cells to EC50 of Anti-HIV activity against HIV-1 IIIB infected in human MT4; assay type: toxicity, cell-based; conditions: read-out: Selectivity Index

| Structure (SMILES) | selectivity ratio |
| --- | --- |
| COc1cc2cc(C#N)ccc2c(OC)c1Oc1cc(N2CCC(O)C2)nc(Nc2ccc(C#N)cc2)n1 (centres undefined) | 22800 |

target: Human immunodeficiency virus type 1 reverse transcriptase (Human immunodeficiency virus 1, UniProt Q72547, K103N/Y181C); assay: Inhibition of HIV1 reverse transcriptase K103N/Y181C double mutant using oligo(dT)16 as primer measured after 40 mins by picogreen-dye based spectrofluorimetric analysis; conditions: not given

| Structure (SMILES) | IC50 |
| --- | --- |
| COc1cc2cc(C#N)ccc2c(OC)c1Oc1cc(N2CCC(O)C2)nc(Nc2ccc(C#N)cc2)n1 (centres undefined) | 450 nM |

tested on: not listed separately; assay: Resistance fold, ratio of EC50 for HIV1 harboring reverse transcriptase Y188L mutant […] to EC50 for wild type HIV1 […]; assay type: functional; conditions: not given

| Structure (SMILES) | Ratio EC50 |
| --- | --- |
| COc1cc2cc(C#N)ccc2c(OC)c1Oc1cc(N2CCC(O)C2)nc(Nc2ccc(C#N)cc2)n1 (centres undefined) | 38 |

tested on: not listed separately; assay: Resistance fold, ratio of EC50 for HIV1 harboring reverse transcriptase E138K mutant […] to EC50 for wild type HIV1 […]; assay type: functional; conditions: not given

| Structure (SMILES) | Ratio EC50 |
| --- | --- |
| COc1cc2cc(C#N)ccc2c(OC)c1Oc1cc(N2CCC(O)C2)nc(Nc2ccc(C#N)cc2)n1 (centres undefined) | 4 |

tested on: not listed separately; assay: Resistance fold, ratio of EC50 for HIV1 harboring reverse transcriptase F227L/V106A double mutant […] to EC50 for wild type HIV1 […]; assay type: functional; conditions: not given

| Structure (SMILES) | Ratio EC50 |
| --- | --- |
| COc1cc2cc(C#N)ccc2c(OC)c1Oc1cc(N2CCC(O)C2)nc(Nc2ccc(C#N)cc2)n1 (centres undefined) | 124 |

tested on: not listed separately; assay: Resistance fold, ratio of EC50 for HIV1 harboring reverse transcriptase K103N/Y181C double mutant […] to EC50 for wild type HIV1 […]; assay type: functional; conditions: not given

| Structure (SMILES) | Ratio EC50 |
| --- | --- |
| COc1cc2cc(C#N)ccc2c(OC)c1Oc1cc(N2CCC(O)C2)nc(Nc2ccc(C#N)cc2)n1 (centres undefined) | 76 |

target: Human immunodeficiency virus type 1 reverse transcriptase (Human immunodeficiency virus 1, UniProt Q72547); assay: Inhibition of wild type HIV1 reverse transcriptase using oligo(dT)16 as primer measured after 40 mins by picogreen-dye based spectrofluorimetric analysis; conditions: not given

| Structure (SMILES) | IC50 |
| --- | --- |
| COc1cc2cc(C#N)ccc2c(OC)c1Oc1cc(N2CCC(O)C2)nc(Nc2ccc(C#N)cc2)n1 (centres undefined) | 100 nM |

target: Human immunodeficiency virus type 1 reverse transcriptase (Human immunodeficiency virus 1, UniProt Q72547, L100I); assay: Inhibition of HIV1 reverse transcriptase L100I mutant using oligo(dT)16 as primer measured after 40 mins by picogreen-dye based spectrofluorimetric analysis; conditions: not given

| Structure (SMILES) | IC50 |
| --- | --- |
| COc1cc2cc(C#N)ccc2c(OC)c1Oc1cc(N2CCC(O)C2)nc(Nc2ccc(C#N)cc2)n1 (centres undefined) | 490 nM |

target: Human immunodeficiency virus type 1 reverse transcriptase (Human immunodeficiency virus 1, UniProt Q72547, K103N); assay: Inhibition of HIV1 reverse transcriptase K103N mutant using oligo(dT)16 as primer measured after 40 mins by picogreen-dye based spectrofluorimetric analysis; conditions: not given

| Structure (SMILES) | IC50 |
| --- | --- |
| COc1cc2cc(C#N)ccc2c(OC)c1Oc1cc(N2CCC(O)C2)nc(Nc2ccc(C#N)cc2)n1 (centres undefined) | 240 nM |

target: Human immunodeficiency virus type 1 reverse transcriptase (Human immunodeficiency virus 1, UniProt Q72547, Y181C); assay: Inhibition of HIV1 reverse transcriptase Y181C mutant using oligo(dT)16 as primer measured after 40 mins by picogreen-dye based spectrofluorimetric analysis; conditions: not given

| Structure (SMILES) | IC50 |
| --- | --- |
| COc1cc2cc(C#N)ccc2c(OC)c1Oc1cc(N2CCC(O)C2)nc(Nc2ccc(C#N)cc2)n1 (centres undefined) | 180 nM |

target: Human immunodeficiency virus type 1 reverse transcriptase (Human immunodeficiency virus 1, UniProt Q72547, Y188L); assay: Inhibition of HIV1 reverse transcriptase Y188L mutant using oligo(dT)16 as primer measured after 40 mins by picogreen-dye based spectrofluorimetric analysis; conditions: not given

| Structure (SMILES) | IC50 |
| --- | --- |
| COc1cc2cc(C#N)ccc2c(OC)c1Oc1cc(N2CCC(O)C2)nc(Nc2ccc(C#N)cc2)n1 (centres undefined) | 1060 nM |

target: Human immunodeficiency virus type 1 reverse transcriptase (Human immunodeficiency virus 1, UniProt Q72547, E138K); assay: Inhibition of HIV1 reverse transcriptase E138K mutant using oligo(dT)16 as primer measured after 40 mins by picogreen-dye based spectrofluorimetric analysis; conditions: not given

| Structure (SMILES) | IC50 |
| --- | --- |
| COc1cc2cc(C#N)ccc2c(OC)c1Oc1cc(N2CCC(O)C2)nc(Nc2ccc(C#N)cc2)n1 (centres undefined) | 150 nM |

target: Human immunodeficiency virus type 1 reverse transcriptase (Human immunodeficiency virus 1, UniProt Q72547, F227L/V106A); assay: Inhibition of HIV1 reverse transcriptase F227L/V106A double mutant using oligo(dT)16 as primer measured after 40 mins by picogreen-dye based spectrofluorimetric analysis; conditions: not given

| Structure (SMILES) | IC50 |
| --- | --- |
| COc1cc2cc(C#N)ccc2c(OC)c1Oc1cc(N2CCC(O)C2)nc(Nc2ccc(C#N)cc2)n1 (centres undefined) | 880 nM |

tested on: not listed separately; assay: Water solubility of compound at pH 2 at 0.1 to 10 mg by HPLC-UV analysis; assay type: physicochemical; conditions: dose 0.1-10 mg

| Structure (SMILES) | solubility |
| --- | --- |
| COc1cc2cc(C#N)ccc2c(OC)c1Oc1cc(N2CCC(O)C2)nc(Nc2ccc(C#N)cc2)n1 (centres undefined) | 1 µg/mL (≈ 1.97 µM) |

tested on: not listed separately; assay: Water solubility of compound at pH 7 at 0.1 to 10 mg by HPLC-UV analysis; assay type: physicochemical; conditions: dose 0.1-10 mg

| Structure (SMILES) | solubility |
| --- | --- |
| COc1cc2cc(C#N)ccc2c(OC)c1Oc1cc(N2CCC(O)C2)nc(Nc2ccc(C#N)cc2)n1 (centres undefined) | < 1 µg/mL |

tested on: not listed separately; assay: Water solubility of compound at pH 7.4 at 0.1 to 10 mg by HPLC-UV analysis; assay type: physicochemical; conditions: dose 0.1-10 mg

| Structure (SMILES) | solubility |
| --- | --- |
| COc1cc2cc(C#N)ccc2c(OC)c1Oc1cc(N2CCC(O)C2)nc(Nc2ccc(C#N)cc2)n1 (centres undefined) | 2 µg/mL (≈ 3.93 µM) |
